According to a melting point compilation (Tetko et al.; mined from patent text by program, amines drawn as free bases though some values may be those of a salt):

SMILES	melting point [°C]
CO[C@H](C)C(=O)N[C@H]1CC[C@H](CCN2CCN(c3nccc4c3OCC4)CC2)CC1	170
O=CNC1CCN(c2ncc3ncnc(Nc4ccc(F)c(Cl)c4)c3n2)CC1	201 to 203
CCc1c(C2=NC(C)(C)CO2)ccc(C2=NC(C)(C)CO2)c1CC	49 to 50
Cc1nc(-c2ccc(C(F)(F)F)cc2)ccc1CO	76 to 78
CS(=O)(=O)OC(c1cccc(C(OS(C)(=O)=O)(C(F)(F)F)C(F)(F)F)c1)(C(F)(F)F)C(F)(F)F	125
Cc1cccc(NC(=O)C2=C(O)c3ccccc3N(c3ccccc3)C2)n1	74 to 77
O=C(Nc1ccc(N2CCCC2)cc1)N(C[C@H]1CC[C@H](CN(C(=O)Nc2ccc(N3CCCC3)cc2)C2CCCCCC2)CC1)C1CCCCCC1	152 to 155
CC1=CC(O)C(OC(=O)c2cccc(N)c2)C(C)(C)CC1=O (stereo not drawn)	121 to 123
O=C1Nc2cnc(N3CCN(c4ccccn4)CC3)nc2S/C1=C/c1ccc([N+](=O)[O-])cc1	332 to 334
CON=C(C(=O)O)c1nc(N)c(Cl)cc1Cl	139 to 144
CCOc1ccc(C2(C(=O)O)CC2(C)C)cc1 (stereo not drawn)	104 to 105
C(=Cc1ccc(-c2ccccc2)cc1)c1ccccc1	224
CCCCCCCNC(=O)Nc1ccccc1C(=O)Nc1ccccn1	118
N#Cc1ccc(C(=O)NCCCCn2cnc3c(N)nc4ccccc4c32)cn1	125 to 129
Cc1cccc(-n2nc(C)cc2-c2ccnc(N(C)C)c2)c1	84 to 85
CNC[C@@H](O)c1cnccn1	78 to 81
Cc1cc2c(cc1C)-n1cnnc1C=C(c1ccc(-n3c(C)nc4cnccc43)cc1)N2	302 to 304
O=C(NS(=O)(=O)NCC1CCCO1)OCc1ccccc1 (stereo not drawn)	96 to 97
CCN(CC)C(=O)CO/N=C(\C(=O)O)c1csc(N)n1	180
Cc1cccc(NC(=O)NCC(=O)N2[C@@H](C(=O)OC(C)(C)C)CC[C@H]2c2ccccc2)c1 (racemic)	156

SMILES	melting point [°C]
COc1c(C(C)(C)C)cc(C=C2CCON(C)C2=O)cc1C(C)(C)C	119 to 121
CC#CCOc1ccc(S(=O)(=O)C(C(=O)OCC)C2CCN(C(=O)c3ccccc3)CC2)cc1 (stereo not drawn)	120
Nc1ncc(CCN2CCN(c3ccccn3)CC2)s1	158 to 161
CCCCNC(=O)OC1c2cccnc2C(=O)N1c1ccc2ccc(Cl)nc2n1 (stereo not drawn)	215
CCOC(=O)C1=CCCCC1S(=O)(=O)Nn1cccc1C1CC1 (stereo not drawn)	95 to 96
CSCC(C)(C)NC(=O)c1c(NC(=O)c2cc(C(F)(F)F)nn2-c2ncccc2Cl)c(Cl)cc2cn[nH]c12	100 to 105
CCc1c(Nc2cc(C)cc(C)c2)nc(OC)nc1OC	113 to 114
Cc1c(C(=O)Nc2ccc(N3CCC(N4CCOCC4)CC3)c(Cl)c2)cnn1-c1ccc(Cl)cc1	238 to 240
CCCCCCCCCCCCCCCCOCCC(O)CO (stereo not drawn)	60 to 61
COc1ccc(C(CN(C)C(=O)/C=C/c2cccnc2)=NO)cc1OC	172 to 173
CC(C)(C)OC(=O)NCC(O)CNC(=O)OC(C)(C)C	92
CCN(CC)Cc1ccc(-c2ccc3c(Nc4cc(OC)c(Cl)cc4Cl)c(C#N)cnc3c2)cc1	191 to 195
CCN(CC)CCNC(=S)NC(=O)c1ccccc1	54 to 56
CN(C(=O)Nc1ccccc1)C1CCCCC1	195 to 197
CN1CCN(c2cccc3c2C[C@H](NC(=O)c2ccc(Cc4ccccc4)cc2)CC3)CC1	191 to 192
O=C(O)COc1ccc(C(=NO)c2ccccc2F)c(Cl)c1Cl	91 to 96
CNC(=O)C(Cc1ccccc1)NC(=O)C(CC(C)C)C(S)CC(=O)OC (stereo not drawn)	169 to 171
CC1(C)c2ccccc2C(C)(C)C1(CC#N)SN=O	67 to 69
O=C(O)/C(=C/c1cnc(CCc2ccccc2)n1Cc1ccc(C(=O)O)cc1)Cc1cccs1	214
COC(=O)NC(=O)Cc1nc(-c2cc(C(C)(C)C)c(O)c(C(C)(C)C)c2)oc1C	125 to 127

SMILES	melting point [°C]
Cn1ncnc1COc1nn2c(-c3ccccc3F)nncc2c1-c1cccc(-c2cccnc2)c1	157 to 163
CC(=O)O[C@H]1C=C[C@@H](O)C1	48 to 49
C[C@]1(COc2ccc(-c3nc(-c4ccc(Cl)cc4)co3)cc2)Cn2cc([N+](=O)[O-])nc2O1	249 to 252
CCCNC(=O)CC1(C)Cc2c(C)c(N3CCN(c4ccc(OC)cc4)CC3)c(C)c(C)c2O1 (stereo not drawn)	135 to 138
CCCCCCCCCCc1c(C(=O)OCC)sc2c1sc1c3sc(C(=O)OCC)c(CCCCCCCCCC)c3sc21	130 to 132
COC(=O)c1ccc(Cn2cc(C=C3C(=O)NC(=O)NC3=O)c3ccccc32)cc1	> 300
COc1nc(Cl)cc(I)c1C=O	120 to 124
CCCCCCCCCCCCC/C=C(/C(=O)Nc1ccc(C(=O)O)cc1)c1ccc2c(c1)C(C)(C)CCC2(C)C	59 to 60
COc1cc2c(cc1OC)[C@@H]1C[C@H](NC(=O)OC(C)(C)C)[C@@H](N3C[C@H](CF)CC3=O)CN1CC2	> 300
Cc1oc(-c2ccccc2)nc1COc1ccc(C=C2SC(=O)NC2=O)cc1	225 to 226
CNS(=O)(=O)Oc1ccccc1OC	68 to 71
Cc1ccc(Cl)c(Nc2ccccc2-c2n[nH]c(=S)o2)c1Cl	257 to 259
CCOc1ccc(C2(C(=O)Oc3ccc(C(=O)NO)cc3)CCCCC2)cc1	140 to 143
O=c1cc(N2CCOCC2)oc2c(-c3cccc(O)c3)cccc12	203 to 205
O=C(Sc1ccc(O)cc1)c1cccc(C(=O)Sc2ccc(O)cc2)c1	218 to 221
COc1ccc(-c2cnc3[nH]cc(C(=O)NC4CCN(C)C4)c3n2)cc1OC (stereo not drawn)	193 to 194
Cc1ccccc1CC(=O)c1cccc(I)c1	115 to 117
CCCCCCCCS(=O)(=O)c1ccc(CC(COC(C)=O)(COC(C)=O)NC(C)=O)cc1	98 to 100

The remaining lines, values ahead:

melting point [°C]	SMILES
< 80	CCOC(=O)CC1(CC)OCCc2c1[nH]c1ccccc21 (stereo not drawn)
109 to 110	CCOc1cc(C(O)c2ccccn2)ccc1OCc1ccccc1 (stereo not drawn)
158 to 159	CCCOc1ccc(S(=O)(=O)N2CCN(CCO)CC2)cc1-c1nc2c(CCC)nn(C)c2c(=O)[nH]1
221	CC(C)(C)OC(=O)N1CCC(OCc2ccccc2)C1CC(=O)Cn1cnc2cccc(F)c2c1=O (stereo not drawn)
162	CCOc1ncnc(OCC)c1NC(=S)NC(=O)c1ccccc1
203 to 205	CCOC(=O)c1nn(-c2ccccc2Br)c(=O)c2c(N)scc12
125 to 126	CCOC(=O)c1cn(-c2ccc(OC)c(OC)c2)cn1
98 to 100	CCCCn1nc(C(F)(F)CC)nc1Cc1ccc(-c2ccccc2-c2nnn[nH]2)nc1
84	CCOC(=O)C(=O)Nc1cc(Cl)c(Cl)c(Cl)c1[N+](=O)[O-]
240 to 242	COc1cc(CNC(=O)c2nc3ccc(F)c(OCCc4ccc(-c5c(O)noc5C)cc4)c3c(=O)[nH]2)ccc1F
129 to 130	CCOC(=O)C1=C(NC(=O)Nc2cc(C(=O)OC(C)C)c(Cl)cc2F)CCCC1
120 to 122	CN1C(=O)Cn2c(nn(Cc3ccccc3)c2=O)-c2cc(Cl)ccc21
132	C=C(C)n1c(=O)n(CCN2CCC(Cc3c[nH]c4ccc(F)cc34)CC2)c2ccccc21
195	CCOC(=O)c1cn(CC)c2nc(N3CCN(C=O)CC3)ncc2c1=O
179 to 180	CCCn1c(N)c(N=Cc2ccc(OCC(=O)O)cc2)c(=O)n(CCC)c1=O
173 to 175	CCCC(=O)c1cc2c(=O)cc(C(=O)OCC)[nH]c2cc1C
174 to 176	CN1CCN(C(=NNS(=O)(=O)c2ccccc2)c2ccc(Cl)cc2Cl)CC1
90	CCOc1ccc(SCCSc2ccc(OCC)cc2)cc1
229 to 231	COC(=O)c1ccc(CSc2nc3ccccc3[nH]2)cc1
228 to 232	CC1CN(c2c(F)cc3c(=O)c(C(=O)O)cn(CCF)c3c2F)CC1CN (stereo not drawn)

melting point [°C]	SMILES
102 to 103	COc1ccc(Br)c(C=O)c1O
158 to 160	COc1cc(N)ccc1S(=O)(=O)Nc1ccc(C)cc1
106 to 109	CC=CCn1c(C)c(C)c2cnnc(OCc3ccc(Cl)cc3F)c21
227 to 228	CC(C)n1nc(-c2cnc(N)nc2-c2ccccc2Cl)ccc1=O
115 to 117	COC(=O)CCCc1cc2cc(Cl)ccc2n1S(=O)(=O)c1cccc(Cl)c1Cl
257 to 259	CC(C)(C)C(NC(=O)c1cccc(Br)c1)Nc1c(Nc2cccnc2Cl)c(=O)c1=O (stereo not drawn)
104 to 105	COc1ccc(CNc2c([N+](=O)[O-])cc(Br)c3ccccc23)c(OC)c1
134 to 135	CCOC(=O)c1cn(-c2cc(N)c(F)cc2F)c2c(C)c(F)c(F)c(N)c2c1=O
202	COc1cc(OC)c2c(=O)[nH]c(-c3cc(C)c(OCCN4Cc5ccccc5C4)c(C)c3)nc2c1
115 to 117	CCCCc1cc(-c2ccc(S(N)(=O)=O)cc2)n(-c2ccc(OC)cc2)c1
90 to 92	O=C(O)CCc1cccc(Oc2ccccc2Cl)c1O
171 to 173	COC(=O)C(O)=CC(=O)c1cn(Cc2ccc(F)cc2)c(=O)n(Cc2ccc(F)cc2)c1=O
> 300	CC(C)CCn1ccc(-c2ccc(NC3CCOCC3)cc2)c(Cl)c1=O
68 to 70	CCc1cc(NC(=O)N2CCN(c3cc(OC)cc(OC)c3)CC2)c(N2CCNCC2)nc1C
172 to 174	O=C(CCCN1CCC(C(O)c2cccc3ccccc23)CC1)c1ccc(F)cc1 (stereo not drawn)
170 to 171	CC1(CC(=O)O)OCCc2c1[nH]c1ccc(O)cc21 (stereo not drawn)
253 to 255	CCC(CC)Cn1c(=O)c(=O)[nH]c2cc(Cl)ccc21
234 to 236	CCCCn1c(=O)c2c(NCC)n[nH]c2n(Cc2ccc(OC)cc2)c1=O
160 to 163	CCOC(=O)c1ccc(NC(=O)c2cc(C)no2)cc1
184 to 186	COc1ccc(CNc2nc(Cl)ccc2C(=O)O)cc1Cl
